Values quoted from earlier work, collected in publication PMC7377239, “Cardiovascular Effects of Polychlorinated Biphenyls and Their Major Metabolites” (Environmental Health Perspectives, 2020).

Test system: porcine pulmonary artery–derived EC
Design: method as in Hennig et al. 2002, 2005; Toborek et al. 1995
Details: ref Hennig et al. 2002, 2005, Toborek et al. 1995; cited from earlier work

Compound | EC toxicity
Clc1ccc(-c2cc(Cl)c(Cl)cc2Cl)cc1Cl [PCB 118] | potent inducers of EC toxicity
Clc1ccc(-c2ccc(Cl)c(Cl)c2)cc1Cl [PCB 77] | potent inducers of EC toxicity
Clc1ccc(-c2cc(Cl)c(Cl)c(Cl)c2Cl)cc1 [PCB 114] | potent inducers of EC toxicity
